Read-outs that look alike come from different tables or passages of the source. Residues, ends and D or L forms follow the SMILES beside them. No end group written: not given here.
How the values were obtained:
[1] = molecular target: HLA-DQ8 (Homo sapiens, UniProt P01909+P01920, A209T/A45G/C70Q/D89A/DUP78-78/E183D/E77G/F237L/G63E/H199R/I129T/K197E/L178F/L74F/L98V/Q57E/Q76R/S185I/S97I/T217I/T49S/V73L/Y58L); assay: MHC II/peptide competition binding assay, HLA-DQ8
Protocol: (§1) One skilled in the art would appreciate that the 15-mers used included shorter de-epitoped high molecular weight glutenin peptide sequences (mutated repeating antigenic units), as described throughout. For example, Table 2 provides a listing of 15-mers and the shorter mutated repeating antigenic units present therein. […] MHC II molecules were purified by affinity chromatography, and peptides were radiolabeled using the chloramine T method. After an incubation period, the bound and unbound radiolabeled species were separated, and their relative amounts were determined by either size-exclusion gel-filtration chromatography or monoclonal antibody capture of MHC. The percent of bound radioactivity was then determined.

[2] = molecular target: HLA-DQ2.5 (Homo sapiens, UniProt P01909+P01920, A45G/A70V/D89A/E106A/E77G/E98D/H199R/L107V/N214S/P84L/P87L/T103K/T109R/T172A/T60S/V78E/V99I/Y58L/Y62S/Y69I/Y79F); assay: MHC II/peptide competition binding assay, HLA-DQ2.5
Protocol: as §1

[3] = molecular target: HLA-DQ7.5 (Homo sapiens, UniProt P01909+P01920); assay: MHC II/peptide competition binding assay, HLA-DQ7.5
Protocol: The peptides were synthesized as purified material on the 2 mg scale with free acid C-termini (A&A labs, USA). One skilled in the art would appreciate that the 15-mers used included shorter de-epitoped high molecular weight glutenin peptide sequences (mutated repeating antigenic units), as described throughout. For example, Table 2 provides a listing of 15-mers and the shorter mutated repeating antigenic units present therein.
Briefly, competition assays using different concentrations of wild-type (WT) and modified glutenin peptides were conducted by diluting the peptides in NP40 buffer, and incubation for 2-4 days with purified MHC II and a radiolabeled known MHC binding peptide (peptide probe). MHC II molecules were purified by affinity chromatography, and peptides were radiolabeled using the chloramine T method. After an incubation period, the bound and unbound radiolabeled species were separated, and their relative amounts were determined by either size-exclusion gel-filtration chromatography or monoclonal antibody capture of MHC. The percent of bound radioactivity was then determined.

[4] = molecular target: HLA-DQ2.2 (Homo sapiens, UniProt P01909+P01920, A45G/A70V/C70K/D167G/D89A/E106A/E183D/E77G/E98D/F237L/F77L/G63E/H199R/I129T/K197E/L107V/L178F/L74F/N214S/P84L/P87L/Q57E/Q76R/R75H/S185I/S97I/T103K/T109R/T172A/T60S/V73L/V78E/V99I/Y48F/Y58L/Y62S/Y69I/Y79F); assay: MHC II/peptide competition binding assay, HLA-DQ2.2; settings: Table 3; 15-mer peptides; >40000 signifies binding is undetectable by assay
Protocol: as §1

[5] = molecular target: HLA-DQ2.5; assay: MHC II competition binding assay (purified MHC II, radiolabeled probe peptide as competitor)
[6] = Table 3, 15-mer peptides, >40000 signifies binding is undetectable by assay

Molecule | IC50 [1, 6] [µM] | IC50 [2, 6] [µM] | IC50 [5] [µM] | other results
C[C@@H](O)[C@H](NC(=O)[C@@H]1CCCN1C(=O)[C@H](Cc1ccc(O)cc1)NC(=O)[C@H](Cc1ccc(O)cc1)NC(=O)CNC(=O)[C@H](CCC(N)=O)NC(=O)[C@H](CCC(N)=O)NC(=O)CNC(=O)[C@@H](N)CCC(N)=O)C(=O)N[C@@H](CO)C(=O)N1CCC[C@H]1C(=O)N[C@@H](CCC(N)=O)C(=O)N[C@@H](CCC(N)=O)C(=O)N[C@@H](CO)C(=O)NCC(=O)O [P1a, reference compound] (H-QGQQGYYPTSPQQSG-OH; N-terminus assumed) | 14.2 | 29.8 |  | 
C[C@@H](O)[C@H](NC(=O)[C@@H]1CCCN1C(=O)[C@H](Cc1ccc(O)cc1)NC(=O)[C@H](Cc1ccc(O)cc1)NC(=O)CNC(=O)[C@H](CCC(=O)O)NC(=O)[C@H](CCC(N)=O)NC(=O)CNC(=O)[C@@H](N)CCC(N)=O)C(=O)N[C@@H](CO)C(=O)N1CCC[C@H]1C(=O)N[C@@H](CCC(=O)O)C(=O)N[C@@H](CCC(N)=O)C(=O)N[C@@H](CO)C(=O)NCC(=O)O [P1b, reference compound] (H-QGQEGYYPTSPEQSG-OH; N-terminus assumed) | 3.76 | 3.29 |  | 
C[C@H](NC(=O)CNC(=O)[C@@H](N)CCC(N)=O)C(=O)N[C@@H](C)C(=O)NCC(=O)N[C@@H](Cc1ccc(O)cc1)C(=O)N[C@@H](Cc1ccc(O)cc1)C(=O)N1CCC[C@H]1C(=O)N[C@H](C(=O)N[C@@H](CO)C(=O)N1CCC[C@H]1C(=O)N[C@@H](CCCNC(=N)N)C(=O)N[C@@H](CCC(N)=O)C(=O)N[C@@H](CO)C(=O)NCC(=O)O)[C@@H](C)O [P1c] (H-QGAAGYYPTSPRQSG-OH) | > 40 | > 40 |  | IC50 [3, 6]: 19.9 µM
C[C@@H](O)[C@H](NC(=O)[C@@H]1CCCN1C(=O)[C@H](CC(=O)O)NC(=O)[C@H](Cc1ccc(O)cc1)NC(=O)CNC(=O)[C@H](CO)NC(=O)[C@H](CCC(N)=O)NC(=O)CNC(=O)[C@@H](N)CCC(N)=O)C(=O)N[C@@H](CO)C(=O)N1CCC[C@H]1C(=O)N[C@H](C(=O)N[C@@H](CCC(N)=O)C(=O)N[C@@H](CO)C(=O)NCC(=O)O)[C@@H](C)O [P1d] (H-QGQSGYDPTSPTQSG-OH) | > 40 | > 40 |  | IC50 [4]: > 40 µM; IC50 [3, 6]: > 40 µM
C[C@@H](O)[C@H](NC(=O)[C@@H]1CCCN1C(=O)[C@H](Cc1ccc(O)cc1)NC(=O)[C@H](Cc1ccc(O)cc1)NC(=O)[C@H](CCCNC(=N)N)NC(=O)[C@@H]1CCCN1C(=O)[C@H](CCC(N)=O)NC(=O)CNC(=O)[C@@H](N)CCC(N)=O)C(=O)N[C@@H](CO)C(=O)N1CCC[C@H]1C(=O)N[C@@H](CCCNC(=N)N)C(=O)N[C@@H](CCC(N)=O)C(=O)N[C@@H](CO)C(=O)NCC(=O)O [P1e] (H-QGQPRYYPTSPRQSG-OH) | 32.5 | 33.2 |  | IC50 [3, 6]: 19.4 µM
CC(C)C[C@H](NC(=O)[C@H](CO)NC(=O)[C@@H](NC(=O)[C@@H]1CCCN1C(=O)[C@H](Cc1ccc(O)cc1)NC(=O)[C@H](Cc1ccc(O)cc1)NC(=O)CNC(=O)[C@H](Cc1c[nH]cn1)NC(=O)[C@H](CCC(N)=O)NC(=O)CNC(=O)[C@@H](N)CCC(N)=O)[C@@H](C)O)C(=O)N[C@@H](Cc1c[nH]cn1)C(=O)N[C@@H](CCC(N)=O)C(=O)N[C@@H](CO)C(=O)NCC(=O)O [P1f] (H-QGQHGYYPTSLHQSG-OH) | > 40 | > 40 |  | IC50 [4]: > 40 µM; IC50 [3, 6]: > 40 µM
C[C@@H](O)[C@H](NC(=O)[C@@H]1CCCN1C(=O)[C@H](CC(=O)O)NC(=O)[C@H](CC(N)=O)NC(=O)CNC(=O)[C@H](CCC(=O)O)NC(=O)[C@H](CCC(N)=O)NC(=O)CNC(=O)[C@@H](N)CCC(N)=O)C(=O)NCC(=O)N1CCC[C@H]1C(=O)N[C@@H](CCC(=O)O)C(=O)N[C@@H](CCC(N)=O)C(=O)N[C@@H](CO)C(=O)NCC(=O)O [P1g] (H-QGQEGNDPTGPEQSG-OH) | > 40 | > 40 |  | IC50 [4]: > 40 µM; IC50 [3, 6]: > 40 µM
C[C@H](NC(=O)[C@@H]1CCCN1C(=O)CNC(=O)[C@H](CCCNC(=N)N)NC(=O)CNC(=O)[C@H](CCC(=O)O)NC(=O)[C@H](CCC(N)=O)NC(=O)CNC(=O)[C@@H](N)CCC(N)=O)C(=O)N[C@@H](CO)C(=O)N1CCC[C@H]1C(=O)N[C@@H](CCCNC(=N)N)C(=O)N[C@@H](CCC(N)=O)C(=O)N[C@@H](CO)C(=O)NCC(=O)O [SEQ ID NO: 145] (H-QGQEGRGPASPRQSG-OH) |  |  |  | IC50 [3]: > 40 µM
CC(C)C[C@H](NC(=O)[C@H](CO)NC(=O)[C@@H](NC(=O)[C@@H]1CCCN1C(=O)[C@H](CC(=O)O)NC(=O)[C@H](Cc1ccc(O)cc1)NC(=O)CNC(=O)[C@H](Cc1c[nH]cn1)NC(=O)[C@H](CCC(N)=O)NC(=O)CNC(=O)[C@@H](N)CCC(N)=O)[C@@H](C)O)C(=O)N[C@@H](CCC(=O)O)C(=O)N[C@@H](CCC(N)=O)C(=O)N[C@@H](CO)C(=O)NCC(=O)O [SEQ ID NO: 173] (H-QGQHGYDPTSLEQSG-OH; N-terminus assumed) |  |  |  | IC50 [1]: > 40 µM; IC50 [2]: 15.9 µM
C[C@H](NC(=O)[C@@H]1CCCN1C(=O)CNC(=O)[C@H](Cc1c[nH]cn1)NC(=O)CNC(=O)[C@H](CCC(=O)O)NC(=O)[C@H](CCC(N)=O)NC(=O)CNC(=O)[C@@H](N)CCC(N)=O)C(=O)N[C@@H](CO)C(=O)N1CCC[C@H]1C(=O)N1CCC[C@H]1C(=O)N[C@@H](CCC(N)=O)C(=O)N[C@@H](CO)C(=O)NCC(=O)O [SEQ ID NO: 175] (H-QGQEGHGPASPPQSG-OH; N-terminus assumed) |  |  |  | IC50 [1]: > 40 µM; IC50 [2]: 22.1 µM
NC(=O)CC[C@H](NC(=O)CNC(=O)[C@@H](N)CCC(N)=O)C(=O)N[C@@H](CCC(=O)O)C(=O)N1CCC[C@H]1C(=O)N[C@@H](Cc1ccc(O)cc1)C(=O)NCC(=O)N1CCC[C@H]1C(=O)N[C@@H](CO)C(=O)N[C@@H](CO)C(=O)N1CCC[C@H]1C(=O)N[C@@H](CCC(=O)O)C(=O)N[C@@H](CCC(N)=O)C(=O)N[C@@H](CO)C(=O)NCC(=O)O [SEQ ID NO: 176] (H-QGQEPYGPSSPEQSG-OH) |  |  |  | IC50 [3]: 28.6 µM
C[C@@H](O)[C@H](NC(=O)[C@@H]1CCCN1C(=O)CNC(=O)[C@H](Cc1ccc(O)cc1)NC(=O)CNC(=O)[C@H](CCC(=O)O)NC(=O)[C@H](CCC(N)=O)NC(=O)CNC(=O)[C@@H](N)CCC(N)=O)C(=O)N[C@@H](CO)C(=O)NCC(=O)N[C@@H](CCC(=O)O)C(=O)N[C@@H](CCC(N)=O)C(=O)N[C@@H](CO)C(=O)NCC(=O)O [SEQ ID NO: 177] (H-QGQEGYGPTSGEQSG-OH; N-terminus assumed) |  |  |  | IC50 [1]: > 40 µM; IC50 [2]: 25.3 µM
C[C@@H](O)[C@H](NC(=O)[C@@H]1CCCN1C(=O)[C@H](Cc1ccc(O)cc1)NC(=O)[C@H](Cc1ccc(O)cc1)NC(=O)CNC(=O)[C@@H]1CCCN1C(=O)[C@H](CCC(N)=O)NC(=O)CNC(=O)[C@@H](N)CCC(N)=O)C(=O)N[C@@H](CO)C(=O)N1CCC[C@H]1C(=O)N[C@@H](Cc1c[nH]cn1)C(=O)N[C@@H](CCC(N)=O)C(=O)N[C@@H](CO)C(=O)NCC(=O)O [SEQ ID NO: 178] (H-QGQPGYYPTSPHQSG-OH; N-terminus assumed) |  |  |  | IC50 [1]: > 40 µM; IC50 [2]: 29.4 µM
C[C@@H](O)[C@H](NC(=O)[C@@H]1CCCN1C(=O)[C@H](Cc1ccc(O)cc1)NC(=O)[C@H](Cc1ccc(O)cc1)NC(=O)CNC(=O)[C@H](CO)NC(=O)[C@H](CCC(N)=O)NC(=O)CNC(=O)[C@@H](N)CCC(N)=O)C(=O)N[C@@H](CO)C(=O)N1CCC[C@H]1C(=O)N[C@H](C(=O)N[C@@H](CCC(N)=O)C(=O)N[C@@H](CO)C(=O)NCC(=O)O)[C@@H](C)O [SEQ ID NO: 179] (H-QGQSGYYPTSPTQSG-OH; N-terminus assumed) |  |  |  | IC50 [1]: > 40 µM; IC50 [2]: 29.7 µM
QGQKGYYPTSPHQSG-OH [modified 15-mer peptide … (SEQ ID NO: 143)] |  |  | 34.4 | 
QGQHGYDPTSLEQSG-OH [modified 15-mer peptide … (SEQ ID NO: 173)] |  |  | 15.9 | 
QGQEGHGPASPPQSG-OH [modified 15-mer peptide … (SEQ ID NO: 175)] |  |  | 22.1 | 
QGQEGYGPTSGEQSG-OH [modified 15-mer peptide … (SEQ ID NO: 177)] |  |  | 25.3 | 
QGQPGYYPTSPHQSG-OH [modified 15-mer peptide … (SEQ ID NO: 178)] |  |  | 29.4 | 
QGQSGYYPTSPTQSG-OH [modified 15-mer peptide … (SEQ ID NO: 179)] |  |  | 29.7 | 

From patent publication US20230416314A1, “MODIFIED HIGH MOLECULAR WEIGHT GLUTENIN SUBUNIT AND USES THEREOF” (Ukko Inc., priority 2020, published 2023)
